# Source: US20140206681A1, “BTK INHIBITORS” (priority 2013, published 2014)
# pIC50: −log10 of the molar value.
# How the values were obtained:
# [1] = biological target: T1, BTK enzyme (recombinant full-length BTK, hBTK) (Homo sapiens, UniProt Q06187); experiment: BTK enzyme activity assay, LANCE TR-FRET; assay type: biochemical; conditions: 50 pM hBTK, 2 μM biotin-A5-peptide, 25 μM ATP; 60 min compound & enzyme incubation; read-out: IC50 BTK activity value
# T1 construct: recombinant protein from baculovirus-transfected Sf9 cells: full-length BTK, 6HIS-tag cleaved; 6HIS (cleaved yes); made in house; host or cells: baculovirus-transfected Sf9 cells
# T1 sequence (Q06187 whole entry): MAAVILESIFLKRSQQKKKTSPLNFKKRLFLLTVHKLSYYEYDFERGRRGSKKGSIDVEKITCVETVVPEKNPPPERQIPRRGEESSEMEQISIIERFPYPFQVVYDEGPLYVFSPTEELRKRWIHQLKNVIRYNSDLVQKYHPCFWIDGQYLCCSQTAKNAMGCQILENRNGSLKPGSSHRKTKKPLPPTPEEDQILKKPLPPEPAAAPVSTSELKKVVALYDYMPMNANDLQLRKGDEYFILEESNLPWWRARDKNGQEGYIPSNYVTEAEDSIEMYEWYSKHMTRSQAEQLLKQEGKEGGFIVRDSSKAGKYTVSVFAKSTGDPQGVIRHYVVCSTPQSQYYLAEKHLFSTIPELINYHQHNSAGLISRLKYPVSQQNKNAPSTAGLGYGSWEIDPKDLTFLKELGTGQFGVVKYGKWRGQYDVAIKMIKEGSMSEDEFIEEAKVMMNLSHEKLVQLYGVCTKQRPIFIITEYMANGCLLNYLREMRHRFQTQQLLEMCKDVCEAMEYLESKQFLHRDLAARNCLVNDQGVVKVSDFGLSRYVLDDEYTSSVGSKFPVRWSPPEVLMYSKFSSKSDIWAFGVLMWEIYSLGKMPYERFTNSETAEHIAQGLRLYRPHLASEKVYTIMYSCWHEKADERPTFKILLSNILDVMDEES
# [2] = system: HeLa cells; experiment: [3H]Adenosine uptake functional cellular assay; assay type: cell-based; conditions: Homo sapiens, HeLa, accumulation of [3H]adenosine into HeLa cells; compound range 10 μM to […]; read-out: Adenosine uptake inhibition IC50
# In short: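 Inhibition of adenosine uptake was measured in HeLa cells (ATCC CCL-2) by following accumulation of tritiated adenosine. Cells were kept overnight at 37° C. with 5% (v/v) CO2, then switched to 40 μL HBSS plus 5% (v/v) FBS. 20 μL of 500 nM [3H]adenosine was added, and uptake was counted on a Topcount NXT reader.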
Structure (SMILES),pIC50 [1],pIC50 [2]
"Nc1nccn2c([C@@H]3CC[C@H]4CCC(=O)N4C3)nc(-c3cc(F)c(C(=O)Nc4cc(C(F)(F)F)ccn4)cc3Cl)c12 [Example 193, 4-{8-amino-3-[(6R,8aS)-3-oxooctahydroindolizin-6-yl]imidazo[1,5-a]pyrazin-1-yl}-5-chloro-2-fluoro-N-[4-(trifluoromethyl)pyridin-2-yl]benzamide]",8.34,6.67
"Nc1ncc(Cl)n2c([C@@H]3CC[C@H]4CCC(=O)N4C3)nc(-c3ccc(C(=O)Nc4cc(C(F)(F)F)ccn4)cc3Cl)c12 [Example 194, 4-{8-amino-5-chloro-3-[(6R,8aS)-3-oxooctahydroindolizin-6-yl]imidazo[1,5-a]pyrazin-1-yl}-3-chloro-N-[4-(trifluoromethyl)pyridin-2-yl]benzamide]",9.41,6.65
"Cc1cnc(NC(=O)c2ccc(-c3nc([C@@H]4CC[C@H]5CCC(=O)N5C4)n4ccnc(N)c34)c(Cl)c2)s1 [Example 195, 4-(8-amino-3-((6R,8aS)-3-oxooctahydroindolizin-6-yl)imidazo[1,5-a]pyrazin-1-yl)-3-chloro-N-(5-methylthiazol-2-yl)benzamide]",9.20,6.76
"Cc1cnc(NC(=O)c2ccc(-c3nc([C@@H]4CC[C@H]5CCC(=O)N5C4)n4c(Cl)cnc(N)c34)c(Cl)c2)s1 [Example 196, 4-(8-amino-5-chloro-3-((6R,8aS)-3-oxooctahydroindolizin-6-yl)imidazo[1,5-a]pyrazin-1-yl)-3-chloro-N-(5-methylthiazol-2-yl)benzamide]",8.82,6.13
"Cc1cc(C(=O)Nc2cc(C(F)(F)F)ccn2)c(F)cc1-c1nc([C@@H]2CC[C@H]3CCC(=O)N3C2)n2c(Cl)cnc(N)c12 [Example 197, 4-(8-amino-5-chloro-3-((6R,8aS)-3-oxooctahydroindolizin-6-yl)imidazo[1,5-a]pyrazin-1-yl)-2-fluoro-5-methyl-N-(4-(trifluoromethyl)pyridin-2-yl)benzamide]",8.11,6.70
"Cc1cc(C(=O)Nc2cc(C(F)(F)F)ccn2)c(F)cc1-c1nc([C@@H]2CC[C@H]3CCC(=O)N3C2)n2ccnc(N)c12 [Example 198, 4-(8-amino-3-((6R,8aS)-3-oxooctahydroindolizin-6-yl)imidazo[1,5-a]pyrazin-1-yl)-2-fluoro-5-methyl-N-(4-(trifluoromethyl)pyridin-2-yl)benzamide]",8.09,6.60
"CCOCCOc1cc(C(=O)Nc2cc(C(F)(F)F)ccn2)ccc1-c1nc([C@@H]2CC[C@H]3CCC(=O)N3C2)n2ccnc(N)c12 [Example 201, 4-{8-amino-3-[(6R,8aS)-3-oxooctahydroindolizin-6-yl]imidazo[1,5-a]pyrazin-1-yl}-3-(2-ethoxyethoxy)-N-[4-(trifluoromethyl)pyridin-2-yl]benzamide]",8.49,5.23
"COc1cc(C(=O)Nc2ncc(C)s2)ccc1-c1nc([C@@H]2CC[C@H]3CCC(=O)N3C2)n2ccnc(N)c12 [Example 202, 4-{8-amino-3-[(6R,8aS)-3-oxooctahydroindolizin-6-yl]imidazo[1,5-a]pyrazin-1-yl}-3-methoxy-N-(5-methyl-1,3-thiazol-2-yl)benzamide]",8.28,5.16
"COc1cc(C(=O)Nc2ncc(C)s2)ccc1-c1nc([C@@H]2CC[C@H]3CCC(=O)N3C2)n2c(Cl)cnc(N)c12 [Example 203, 4-{8-amino-5-chloro-3-[(6R,8aS)-3-oxooctahydroindolizin-6-yl]imidazo[1,5-a]pyrazin-1-yl}-3-methoxy-N-(5-methyl-1,3-thiazol-2-yl)benzamide]",8.77,5.76
"C#CCCOc1cc(C(=O)Nc2cc(C(F)(F)F)ccn2)ccc1-c1nc([C@@H]2CC[C@H]3CCC(=O)N3C2)n2ccnc(N)c12 [Example 204, 4-{8-amino-3-[(6R,8aS)-3-oxooctahydroindolizin-6-yl]imidazo[1,5-a]pyrazin-1-yl}-3-(but-3-yn-1-yloxy)-N-[4-(trifluoromethyl)pyridin-2-yl]benzamide]",9.12,5.86
"CCOc1cc(C(=O)Nc2cc(C(F)(F)F)n(C)n2)ccc1-c1nc([C@@H]2CC[C@H]3CCC(=O)N3C2)n2c(C)cnc(N)c12 [Example 205, 4-{8-amino-5-methyl-3-[(6R,8aS)-3-oxooctahydroindolizin-6-yl]imidazo[1,5-a]pyrazin-1-yl}-3-ethoxy-N-[1-methyl-5-(trifluoromethyl)-1H-pyrazol-3-yl]benzamide]",8.92,5.63
"CCOc1cc(C(=O)Nc2cc(C(F)(F)F)ccn2)ccc1-c1nc([C@@H]2CC[C@H]3CCC(=O)N3C2)n2c(C(F)(F)F)cnc(N)c12 [Example 206, 4-{8-amino-3-[(6R,8aS)-3-oxooctahydroindolizin-6-yl]-5-(trifluoromethyl)imidazo [1,5-a]pyrazin-1-yl}-3-ethoxy-N-[4-(trifluoromethyl)pyridin-2-yl]benzamide]",9.14,5.95
"CCc1ccnc(NC(=O)c2ccc(-c3nc([C@@H]4CC[C@H]5CCC(=O)N5C4)n4c(Cl)cnc(N)c34)c(OC)c2)c1 [Example 207, 4-{8-amino-5-chloro-3-[(6R,8aS)-3-oxooctahydroindolizin-6-yl]imidazo[1,5-a]pyrazin-1-yl}-N-(4-ethylpyridin-2-yl)-3-methoxybenzamide]",9.24,6.42
"COc1ccnc(NC(=O)c2ccc(-c3nc([C@@H]4CC[C@H]5CCC(=O)N5C4)n4c(Cl)cnc(N)c34)c(OC)c2)c1 [Example 208, 4-{8-amino-5-chloro-3-[(6R,8aS)-3-oxooctahydroindolizin-6-yl]imidazo[1,5-a]pyrazin-1-yl}-3-methoxy-N-(4-methoxypyridin-2-yl)benzamide]",8.80,6.41
"COc1cc(C(=O)Nc2cc(C3CCC3)ccn2)ccc1-c1nc([C@@H]2CC[C@H]3CCC(=O)N3C2)n2c(Cl)cnc(N)c12 [Example 209, 4-{8-amino-5-chloro-3-[(6R,8aS)-3-oxooctahydroindolizin-6-yl]imidazo[1,5-a]pyrazin-1-yl}-N-(4-cyclobutylpyridin-2-yl)-3-methoxybenzamide]",9.39,6.24
"COc1cc(C(=O)Nc2ccc(C)cn2)ccc1-c1nc([C@@H]2CC[C@H]3CCC(=O)N3C2)n2c(Cl)cnc(N)c12 [Example 210, 4-{8-amino-5-chloro-3-[(6R,8aS)-3-oxooctahydroindolizin-6-yl]imidazo[1,5-a]pyrazin-1-yl}-3-methoxy-N-(5-methylpyridin-2-yl)benzamide]",8.85,5.95
"Nc1ncc(C(F)(F)F)n2c([C@@H]3CC[C@H]4CCC(=O)N4C3)nc(-c3ccc(C(=O)Nc4cc(C(F)(F)F)ccn4)cc3Cl)c12 [Example 211, 4-{8-amino-3-[(6R,8aS)-3-oxooctahydroindolizin-6-yl]-5-(trifluoromethyl)imidazo[1,5-a]pyrazin-1-yl}-3-chloro-N-[4-(trifluoromethyl)pyridin-2-yl]benzamide]",8.05,6.57
"Nc1ncc(C(F)(F)F)n2c([C@@H]3CC[C@H]4CCC(=O)N4C3)nc(-c3ccc(C(=O)Nc4cc(C5CC5)ccn4)cc3F)c12 [Example 212, 4-{8-amino-3-[(6R,8aS)-3-oxooctahydroindolizin-6-yl]-5-(trifluoromethyl)imidazo [1,5-a]pyrazin-1-yl}-N-(4-cyclopropylpyridin-2-yl)-3-fluorobenzamide]",8.42,7.06
"COc1cc(C(=O)Nc2cc(C(F)(F)F)ccn2)ccc1-c1nc([C@@H]2CC[C@H]3CCC(=O)N3C2)n2c(C(F)(F)F)cnc(N)c12 [Example 213, 4-{8-amino-3-[(6R,8aS)-3-oxooctahydroindolizin-6-yl]-5-(trifluoromethyl)imidazo[1,5-a]pyrazin-1-yl}-3-methoxy-N-[4-(trifluoromethyl)pyridin-2-yl]benzamide]",8.57,6.16
"Cc1cc(C(=O)Nc2cc(C(F)(F)F)ccn2)cc(F)c1-c1nc([C@@H]2CC[C@H]3CCC(=O)N3C2)n2ccnc(N)c12 [Example 214, 4-{8-amino-3-[(6R,8aS)-3-oxooctahydroindolizin-6-yl]imidazo[1,5-a]pyrazin-1-yl}-3-fluoro-5-methyl-N-[4-(trifluoromethyl)pyridin-2-yl]benzamide]",8.66,6.29
"CCOc1cc(C(=O)Nc2cc(C(F)(F)F)n(C)n2)ccc1-c1nc([C@@H]2CC[C@H]3CCC(=O)N3C2)n2c(C(F)(F)F)cnc(N)c12 [Example 215, 4-{8-amino-3-[(6R,8aS)-3-oxooctahydroindolizin-6-yl]-5-(trifluoromethyl)imidazo[1,5-a]pyrazin-1-yl}-3-ethoxy-N-[1-methyl-5-(trifluoromethyl)-1H-pyrazol-3-yl]benzamide]",8.40,5.61
"CC(F)(F)Oc1cc(C(=O)Nc2cc(C(F)(F)F)ccn2)ccc1-c1nc([C@@H]2CC[C@H]3CCC(=O)N3C2)n2c(Cl)cnc(N)c12 [Example 216, 4-{8-amino-5-chloro-3-[(6R,8aS)-3-oxooctahydroindolizin-6-yl]imidazo[1,5-a]pyrazin-1-yl}-3-(1,1-difluoroethoxy)-N-[4-(trifluoromethyl)pyridin-2-yl]benzamide]",8.18,6.05
"COc1cc(C(=O)Nc2cc(C(F)(F)F)ccn2)cc(F)c1-c1nc([C@@H]2CC[C@H]3CCC(=O)N3C2)n2c(Cl)cnc(N)c12 [Example 217, 4-{8-amino-5-chloro-3-[(6R,8aS)-3-oxooctahydroindolizin-6-yl]imidazo[1,5-a]pyrazin-1-yl}-3-fluoro-5-methoxy-N-[4-(trifluoromethyl)pyridin-2-yl]benzamide]",9.77,6.15
